In one data set the target is recombinant HIV-RT (Human immunodeficiency virus type 1 group M subtype B, UniProt P04585). The data set can be described thus: Test I (HIVRT (rAdt)): direct inhibitory activity on HIV-RT. The class given is biochemical. As to the method:
100 mM Tris-HCl pH 7.6, 100 mM KCl, 4 mM MgCl2, 4 mM DTT, 275 mg/ml BSA, 0.5 mg (rA)n(dT)12-18 and 0.3 mM ^3H-=dTTP (specific activity 18.000 cpm/mol). After 60 minutess of incubation 40 ml in duplicate were spotted on paper discs and washed in 5% TCA. After rinsing the paper discs in ethanol they were dried and counted in scintillation fluid.

In a further data set the test system is HIV virus. As to the kind of experiment: Test A (XTT): reduction of virus-caused cytotoxicity in MT4 cells. The format is cell-based. The note with it: for inhibition at 0.01 µg/mL: 0.01 μg/ml; for % inhibition: Test A. As to the method: Tests A, B, C, and D (XTT)
MT4 cells in a medium of RPMI 1640, 5% FCS, penicillin/streptomycin are adjusted to 2×10^5 cells/ml and seeded into microplates (96 wells/plate) […] cell suspension/well giving 2×10^4 cells/well. The compound to be tested is made into a 10 mg/ml mixture in DMSO and stored at −20° C. […] Further dilutions to […] are made in medium containing microplates. Fifty ml of the 400, 40, and 4 mg/ml are transferred to the cell-containing microplates with a multi-channel pipette (final concentration: 100, 10, and 1 mg/ml). Finally, […] of virus suspension is added to each well (with a repetitive “Eppendorf” multipipett). […] The plate is put into a plastic bag and incubated for six days in CO2 atmosphere.
To each well in the plate is added 50 ml of XTT ((2,3-bis[2-methoxy-4-nitro-5-sulfophenyl]-5-[(phenylamin o)carbonyl]-2H-tetrazolium hydroxide), (1 mg/ml 0.01-0.02 mM N-metyl-phenazonium methosulfate). After six hours of incubation in C02 atmosphere the plates are covered with adhesive plate sealers and gently mixed on a vortex. Optical densities are determined at a wavelength of 450 nm and a reference wavelength of 650 nm. The percent reduction of cytotoxocity caused by the virus infection is calculated as follows: [formula]
Background: Tetrazolium dyes change colour on reduction, which living cells bring about.

Where [1] appears, read: Human immunodeficiency virus 1, MT4, Test A.
The mark [2] stands for this setting: Human immunodeficiency virus 1, MT4, Test A, 100 μg/ml, read-out: % inhibition.
[3] abbreviates: headed 0.1 μg/ml (after 0.001 μg/ml).
Setting [4] is: Human immunodeficiency virus 1, MT4.

From US20040116418A1, “Compounds and methods for inhibition of HIV and related viruses” (Medivir AB, priority 1994, published 2004) come the findings set out here.

Several values for one entry are separate records, joined by “and”; a condition that tells them apart may be missing. Equal entries are not always repeated. Where two headings read alike, the source gives them in different places.

What is called % inhibition is the relative decrease from the control value, in per cent. One may read the inhibition as how much of the control response was suppressed. The IC50 is the concentration that gives 50% inhibition. On to `CCOc1ccc(F)c(C2C[C@@H]2NC(=O)Nc2ccc(Cl)cn2)c1Cl` (some centres unmarked), for which the “% inhibition” value is 30% at recombinant HIV-RT (0.001 μg/ml), 80% at recombinant HIV-RT (0.01 μg/ml), 97% on recombinant HIV-RT (1 μg/ml) and 30% in the data set with HIV virus (100 μg/ml). On recombinant HIV-RT (0.001 μg/ml), the inhibition at 0.001 µg/mL turned out to be 46%. The inhibition at 0.01 µg/mL at recombinant HIV-RT (0.01 μg/ml) was 82%; in the data set on HIV virus (setting [1]), 100%. Besides, the inhibition at 0.1 µg/mL was 96% on recombinant HIV-RT (0.1 μg/ml) and 100% with HIV virus (Human immunodeficiency virus 1, MT4, Test A, 0.1 μg/ml, read-out: % inhibition). Also, the inhibition at 1 µg/mL on recombinant HIV-RT (1 μg/ml) was found to be 99%; with HIV virus (Human immunodeficiency virus 1, MT4, Test A, 1 μg/ml), 87%. In addition, the IC50 at recombinant HIV-RT (read-out: IC50 (converted)) was 2.86 nM and 5.21 nM. In the data set with HIV virus (Human immunodeficiency virus 1, MT4, Test A, 10 μg/ml, read-out: % inhibition), the inhibition at 10 µg/mL stood at 88%. For the same compound, the inhibition at 100 µg/mL in the data set on HIV virus (setting [2]) was found to be 24%.
For `O=C(Nc1ccc(Br)cn1)N[C@@H]1C[C@H]1c1c(F)cccc1F` (relative stereo) [Example 27, (1R,2S)-N-(cis-2-(2,6-Difluorophenyl)-cyclopropyl)-N′-(5-bromopyrid-2-yl)-urea], the IC50 at recombinant HIV-RT is 0.5 ng/mL and 0.6 ng/mL.
As a reminder, the melting point is the temperature of the solid-liquid transition. Compound `CC(NC(=O)Nc1ccc(Br)cn1)c1ncccc1F` (centres unmarked) [Example 10, N-(3-Fluoropyrid-2-yl)eth-2yl-N′-(5-bromopyrid-2-yl)-urea] yielded a melting point of 151 to 154 °C.
For the compound `O=C(Nc1ccc(Cl)cn1)N[C@H]1CC1c1c(F)cccc1F` (some centres unmarked), the “% inhibition” value on recombinant HIV-RT (0.001 μg/ml) is 62%; at recombinant HIV-RT (0.01 μg/ml) it was 93%; on recombinant HIV-RT (0.1 μg/ml), 97%; at recombinant HIV-RT (setting [3]) it was 6% and 16%; in the data set with HIV virus (0.001 μg/ml) it was 8%; in the data set on HIV virus (1 μg/ml) it was 90%. Further, the inhibition at 0.001 µg/mL on recombinant HIV-RT (0.001 μg/ml) amounted to 55%; in the data set with HIV virus (Human immunodeficiency virus 1, MT4, Test A, 0.001 μg/ml) it was 7%. Also, the inhibition at 0.01 µg/mL at recombinant HIV-RT (0.01 μg/ml) is 89%; in the data set on HIV virus (setting [1]), 80%. For the same compound, the inhibition at 0.1 µg/mL is 98% on recombinant HIV-RT (0.1 μg/ml) and 100% with HIV virus (setting [4]). Besides, the inhibition at 1 µg/mL at recombinant HIV-RT (1 μg/ml) is 100%. For the same compound, the inhibition at 10 µg/mL with HIV virus (setting [4]) was determined as 100%. The inhibition at 100 µg/mL in the data set with HIV virus (setting [4]) was 100%; in the data set on HIV virus (setting [2]), 3%.
With `CC(=O)c1cccc([C@H]2C[C@H]2NC(=O)Nc2ccc(Cl)cn2)c1` (racemic) [Example 23, (+,−)-N-(cis-2-(3-Acetylphenyl)-cyclopropyl)-N′-(5-chloropyrid-2-yl)-urea], the concentration for half-maximal inhibition (IC50) at recombinant HIV-RT (read-out: IC50 (converted)) is 15.2 nM and 42.5 nM.
`N#Cc1ccc(NC(=O)N[C@@H]2C[C@@H]2c2c(F)cccc2Cl)nc1` (relative stereo) [Example 33, N-(cis-2-(2-chloro-6-fluorophenyl)-cyclopropyl)-N′-(5-cyanopyrid-2-yl)-urea]: the melting point was 189 °C.
Regarding `CC(=O)c1ccc(F)c(CCNC(=O)Nc2ccc(Cl)cn2)c1O` [Example 58], at recombinant HIV-RT, the IC50 was 38 ng/mL.
The same measure, in the same setting: the same measure for `COCOc1c(C(C)=O)ccc(F)c1[C@H]1C[C@H]1NC(=O)Nc1ccc(Cl)cn1` (relative stereo) [Example 56, (+,−)-N-(cis-2-(5-Acetyl-2-fluoro-6-methoxymethoxy-phenyl)cyclopropyl)-N′-(5-chloropyrid-2-yl)-urea]: 2.2 ng/mL.
Regarding `CCOc1ccc(F)c(CCNC(=O)Nc2ccc(Br)cn2)c1Cl`, at recombinant HIV-RT (setting [3]), the “% inhibition” value was 13% and 18%.
For the compound `O=C(Nc1ccc(Cl)cn1)N[C@@H]1C[C@@H]1c1cccc([N+](=O)[O-])c1` (racemic) [Example 21, (+,−)-N-(cis-2-(3-Nitrophenyl)-cyclopropyl)-N′-(5-chloropyrid-2-yl)-urea], the IC50 at recombinant HIV-RT (read-out: IC50 (converted)) was 150 nM.
